Experimental data published in patent US20240158446A1, “CYCLIC COMPOUND HAVING SELECTIVE INHIBITORY ACTION ON KRAS OVER HRAS AND NRAS” (CHUGAI SEIYAKU KABUSHIKI KAISHA, priority 2021, published 2024).
pKd: −log10 of the molar value. Where two headings read alike, the source gives them in different places. Where a SMILES comes first, the peptide text is derived from it. Bridges are numbered along the chain shown (N, C = ends). [ ]: non-standard residue; d: D form. The star is where a group is joined. hPhe(3,5-F2-4-CF3) = N[C@@H](CCc1cc(F)c(C(F)(F)F)c(F)c1)C(=O)O; hPhe(3-Cl-4-CF3) = N[C@@H](CCc1ccc(C(F)(F)F)c(Cl)c1)C(=O)O; NPrPhe(4-CF3) = CCCN[C@@H](Cc1ccc(C(F)(F)F)cc1)C(=O)O; NMeGly(cPent) = CN[C@H](C(=O)O)C1CCCC1; NMeD = CN[C@@H](CC(=O)O)C(=O)O; NMeL = CN[C@@H](CC(C)C)C(=O)O; αMeS = C[C@](N)(CO)C(=O)O; Morpholide = C1CN(*)CCO1; NMeA = CN[C@@H](C)C(=O)O; Ac5c = NC1(C(=O)O)CCCC1; Aze = O=C(O)[C@@H]1CCN1; Sar = CNCC(=O)O

Experiments:
[1] = molecular target: GDP-bound HRAS wild-type protein (Homo sapiens, UniProt P01112); experiment: Binding to HRAS by surface plasmon resonance (SPR), Single Cycle Kinetics; settings: for HRAS/KRAS (ratio of KD value for HRAS to KD value for KRAS) / HRAS/KRAS (ratio of KD value with respect to HRAS to KD value with respect to KRAS): SPR, GDP-bound HRAS wild-type protein vs GDP-bound KRAS wild-type protein; for HRAS/KRAS (ratio of KD value with respect to GDP-bound HRAS wild-type protein to KD value with respect to KRAS): SPR KD ratio HRAS/KRAS, class symbols
Chain of GDP-bound HRAS wild-type protein (P01112 whole entry): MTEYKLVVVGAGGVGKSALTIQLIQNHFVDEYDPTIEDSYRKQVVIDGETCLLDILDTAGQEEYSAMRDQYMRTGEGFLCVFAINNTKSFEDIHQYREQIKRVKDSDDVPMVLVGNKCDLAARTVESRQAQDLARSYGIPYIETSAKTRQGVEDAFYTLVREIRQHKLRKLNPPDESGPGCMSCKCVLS

[2] = molecular target: GDP-bound KRAS wild-type protein (Homo sapiens, UniProt P01116); experiment: Binding to KRAS by surface plasmon resonance (SPR), Single Cycle Kinetics; settings: GDP-bound KRAS wild-type protein, read-out: KRAS KD
Chain of GDP-bound KRAS wild-type protein (P01116 whole entry): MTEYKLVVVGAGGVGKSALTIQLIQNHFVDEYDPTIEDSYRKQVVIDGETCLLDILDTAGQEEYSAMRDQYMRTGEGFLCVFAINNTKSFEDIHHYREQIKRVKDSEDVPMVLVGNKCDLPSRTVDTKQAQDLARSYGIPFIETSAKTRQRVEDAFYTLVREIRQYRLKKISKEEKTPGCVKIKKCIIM

[3] = molecular target: GDP-bound NRAS wild-type protein (Homo sapiens, UniProt P01111); experiment: Binding to NRAS by surface plasmon resonance (SPR), Single Cycle Kinetics; settings: for NRAS/KRAS (ratio of KD value for NRAS to KD value for KRAS) / NRAS/KRAS (ratio of KD value with respect to NRAS to KD value with respect to KRAS): SPR, GDP-bound NRAS wild-type protein vs GDP-bound KRAS wild-type protein; for NRAS/KRAS (ratio of KD value with respect to GDP-bound NRAS wild-type protein to KD value with respect to KRAS): SPR KD ratio NRAS/KRAS, class symbols
Chain of GDP-bound NRAS wild-type protein (P01111 whole entry): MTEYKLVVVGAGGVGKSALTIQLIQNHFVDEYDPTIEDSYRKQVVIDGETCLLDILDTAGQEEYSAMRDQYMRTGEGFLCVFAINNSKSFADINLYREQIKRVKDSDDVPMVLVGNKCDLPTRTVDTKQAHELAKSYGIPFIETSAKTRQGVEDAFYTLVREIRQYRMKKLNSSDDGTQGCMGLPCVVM

[4] = SPR, Single Cycle Kinetics, 1:1 binding model
[5] = SPR Single Cycle Kinetics, 1:1 binding model

Compound | HRAS/KRAS (ratio of KD value for HRAS to KD value for KRAS) [1] | pKd ([2]; SPR, Single Cycle Kinetics) | NRAS/KRAS (ratio of KD value for NRAS to KD value for KRAS) [3] | pKd [2, 5] | also measured
CCO[C@@H]1C[C@H]2C(=O)NC3(CC=CC3)C(=O)N(C)[C@@H](C3CCCC3)C(=O)N(C)[C@H](C(=O)N3CCOCC3)CC(=O)N(C)[C@@H](COC)C(=O)N[C@@H]([C@@H](C)CC)C(=O)N(C)CC(=O)N(C)[C@H]3CCCCCN(C3=O)[C@@H](Cc3ccc(C(F)(F)F)cc3)C(=O)N(C)CC(=O)N[C@@H](CCc3cc(F)c(C(F)(F)F)c(F)c3)C(=O)N2C1 [PP0842] | B (a compound having 3 or more and less than 10 is denoted as B) | 9.22 | B (a compound having 3 or more and less than 10 is denoted as B) | – | –
CC[C@H](C)[C@@H]1NC(=O)[C@H](CC2CC2)N(C)C(=O)C[C@@H](C(=O)N2CCCC2)N(C)C(=O)[C@H](C2CCCC2)N(C)C(=O)C2(CCCC2)NC(=O)[C@@H]2C[C@@H](C(F)(F)F)CN2C(=O)[C@H](CCc2cc(F)c(C(F)(F)F)c(F)c2)NC(=O)CN(C)C(=O)[C@H](Cc2ccc(C(F)(F)F)cc2)N2CC/C=C\C[C@@H](C2=O)N(C)C(=O)CN(C)C1=O [PP1506] | – | – | – | – | HRAS/KRAS (ratio of KD value for HRAS to KD value for KRAS) ([1]; KD ratio class): A (a compound having 10 or more and less than 20 is denoted as A); pKd [2, 4]: 9.47; NRAS/KRAS (ratio of KD value for NRAS to KD value for KRAS) ([3]; KD ratio class): AA (a compound having 20 or more is denoted as AA)
CCCN1C(=O)[C@@H]2CCN2C(=O)[C@H](C)N(C)C(=O)[C@H]([C@@H](C)CC)NC(=O)[C@H](CC(C)C)NC(=O)C[C@@H](C(=O)N2CCOCC2)N(C)C(=O)[C@H](C2CCCC2)N(C)C(=O)C2(CCCC2)NC(=O)[C@@H]2CCCN2C(=O)[C@H](CCc2ccc(C(F)(F)F)c(Cl)c2)NC(=O)CN(C)C(=O)[C@@H]1Cc1ccc(C(F)(F)F)cc1 [PP0154] (LI[NMeA][Aze][NPrPhe(4-CF3)][Sar][hPhe(3-Cl-4-CF3)]P[Ac5c][NMeGly(cPent)][NMeD]-Morpholide; lactam N-11) | B (a compound having 3 or more and less than 10 is denoted as B) | – | C (A compound having a KD ratio of 0.1 or more and less than 3 is denoted as C) | 9.64 | –
CCO[C@@H]1C[C@H]2C(=O)NC3(CCC3)C(=O)N(C)[C@@H](C3CCCC3)C(=O)N(CC)[C@H](C(=O)N3CCOCC3)CC(=O)N(C)[C@@H](CO)C(=O)N[C@@H]([C@@H](C)CC)C(=O)N(C)CC(=O)N(C)[C@H]3CCCCCN(C3=O)[C@@H](Cc3ccc(C(F)(F)F)cc3)C(=O)N(C)CC(=O)N[C@@H](CCc3cc(F)c(C(F)(F)F)c(F)c3)C(=O)N2C1 [PP0945] | A (a compound having 10 or more and less than 20 is denoted as A) | 8.43 | B (a compound having 3 or more and less than 10 is denoted as B) | – | –
CCC[C@H]1C(=O)N[C@@H]([C@@H](C)CC)C(=O)N(C)CC(=O)N(C)[C@H]2C/C=C\CCN(C2=O)[C@@H](Cc2ccc(C(F)(F)F)cc2)C(=O)N(C)CC(=O)N[C@@H](CCc2cc(F)c(C(F)(F)F)c(F)c2)C(=O)N2C[C@H](OCC)C[C@H]2C(=O)NC2(CCC2)C(=O)N(C)[C@@H](C2CCCC2)C(=O)N(C)[C@H](C(=O)N(CC)CC)CC(=O)N1C [PP1310, (2S,8S,12R,14S,20S,23S,27S,30S,36S,38Z)-20-cyclopentyl-8-[2-[3,5-difluoro-4-(trifluoromethyl)phenyl]ethyl]-12-ethoxy-N,N-diethyl-4,19,22,26,32,35-hexamethyl-30-[(1S)-1-methylpropyl]-3,6,9,15,18,21,25,28,31,34,42-undecaoxo-27-propyl-2-[[4-(trifluoromethyl)phenyl]methyl]spiro[1,4,7,10,16,19,22,26,29,32,35-undecazatricyclo[34.5.1.0^10,14]dotetracont-38-ene-17,1′-cyclobutane]-23-carboxamide] | – | – | – | – | HRAS/KRAS (ratio of KD value for HRAS to KD value for KRAS) ([1]; KD ratio class): A (a compound having 10 or more and less than 20 is denoted as A); pKd [2, 4]: 9.89; NRAS/KRAS (ratio of KD value for NRAS to KD value for KRAS) ([3]; KD ratio class): AA (a compound having 20 or more is denoted as AA)
CCCN1C(=O)CN(C)C(=O)CN(C)C(=O)[C@H]([C@@H](C)CC)NC(=O)[C@H](CC(C)C)N(C)C(=O)C[C@@H](C(=O)N(C)C)N(C)C(=O)[C@H](C2CCCC2)N(C)C(=O)[C@](C)(COC)NC(=O)[C@@H]2CCCN2C(=O)[C@H](CCc2cc(F)c(C(F)(F)F)c(F)c2)NC(=O)CN(C)C(=O)[C@@H]1Cc1ccc(C(F)(F)F)cc1 [PP0741] ([NMeL]I[Sar][Sar][NPrPhe(4-CF3)][Sar][hPhe(3,5-F2-4-CF3)]P[αMeS](Me)[NMeGly(cPent)][NMeD]-NMe2; lactam N-11) | – | – | – | 9.55 | HRAS/KRAS (ratio of KD value with respect to HRAS to KD value with respect to KRAS) [1]: B (a compound having 3 or more and less than 10 is denoted as B); NRAS/KRAS (ratio of KD value with respect to NRAS to KD value with respect to KRAS) [3]: B (a compound having 3 or more and less than 10 is denoted as B)
CCO[C@@H]1C[C@H]2C(=O)NC3(CCC3)C(=O)N(C)[C@@H](C3CCCC3)C(=O)N(C)[C@H](C(=O)N(C)C)CC(=O)N(C)[C@@H](COC)C(=O)N[C@@H]([C@@H](C)CC)C(=O)N(C)CC(=O)N(C)[C@H]3CCCCN(C3=O)[C@@H](Cc3ccc(C(F)(F)F)cc3)C(=O)N(C)CC(=O)N[C@@H](CCc3cc(F)c(C(F)(F)F)c(F)c3)C(=O)N2C1 [PP0704] | – | – | – | 10.96 | HRAS/KRAS (ratio of KD value with respect to HRAS to KD value with respect to KRAS) [1]: C (A compound having a KD ratio of 0.1 or more and less than 3 is denoted as C); NRAS/KRAS (ratio of KD value with respect to NRAS to KD value with respect to KRAS) [3]: C (A compound having a KD ratio of 0.1 or more and less than 3 is denoted as C)
CCC[C@@H]1C[C@H]2C(=O)NC3(CCCC3)C(=O)N(C)[C@@H](C3CCCC3)C(=O)N(C)[C@H](C(=O)N(C)CC)CC(=O)N(C)[C@@H](C)C(=O)N[C@@H]([C@@H](C)CC)C(=O)N(C)CC(=O)N(C)[C@H]3C/C=C\CCN(C3=O)[C@@H](Cc3ccc(C(F)(F)F)cc3)C(=O)N(C)CC(=O)N[C@@H](CCc3cc(F)c(C(F)(F)F)c(F)c3)C(=O)N2C1 [PP2272] | A (a compound having 10 or more and less than 20 is denoted as A) | 9.31 | AA (a compound having 20 or more is denoted as AA) | – | –
CCC[C@H]1C(=O)N[C@@H]([C@@H](C)CC)C(=O)N(C)CC(=O)N(C)[C@H]2C/C=C\CCN(C2=O)[C@@H](Cc2ccc(C(F)(F)F)cc2)C(=O)N(C)CC(=O)N[C@@H](CCc2ccc3c(C)c(C)n(C)c3c2)C(=O)N2C[C@H](OCC)C[C@H]2C(=O)NC2(CC(C)(C)C2)C(=O)N(C)[C@@H](C2CCCC2)C(=O)N(C)[C@H](C(=O)N(C)C)CC(=O)N1C [PP2893] | – | – | – | 8.70 | HRAS/KRAS (ratio of KD value with respect to GDP-bound HRAS wild-type protein to KD value with respect to KRAS) [1]: A (a compound having 10 or more and less than 20 is denoted as A); NRAS/KRAS (ratio of KD value with respect to GDP-bound NRAS wild-type protein to KD value with respect to KRAS) [3]: A (a compound having 10 or more and less than 20 is denoted as A)
CCO[C@@H]1C[C@H]2C(=O)NC3(CCC3)C(=O)N(C)[C@@H](C3CCCC3)C(=O)N(C)[C@H](C(=O)N(C)C)CC(=O)N(C)[C@@H](CC)C(=O)N[C@@H]([C@@H](C)CC)C(=O)N3CC[C@H]3C(=O)N(C)[C@H]3CC(C)=CCN(C3=O)[C@@H](Cc3ccc(C(F)(F)F)cc3)C(=O)N(C)CC(=O)N[C@@H](CCc3cc(F)c(C(F)(F)F)c(F)c3)C(=O)N2C1 [PP1035] | C (A compound having a KD ratio of 0.1 or more and less than 3 is denoted as C) | 9.28 | C (A compound having a KD ratio of 0.1 or more and less than 3 is denoted as C) | – | –
CCC[C@H]1C(=O)N[C@@H]([C@@H](C)CC)C(=O)N(C)CC(=O)N(C)[C@H]2C/C=C\CCN(C2=O)[C@@H](Cc2ccc(C(F)(F)F)cc2)C(=O)N(C)CC(=O)N[C@@H](CCc2ccc3ccn(C)c3c2)C(=O)N2C[C@H](OCC)C[C@H]2C(=O)NC2(CC(C)(C)C2)C(=O)N(C)[C@@H](C(CC)CC)C(=O)N(C)[C@H](C(=O)N(C)C)CC(=O)N1C [PP2912] | – | – | – | 8.06 | HRAS/KRAS (ratio of KD value with respect to GDP-bound HRAS wild-type protein to KD value with respect to KRAS) [1]: A (a compound having 10 or more and less than 20 is denoted as A); NRAS/KRAS (ratio of KD value with respect to GDP-bound NRAS wild-type protein to KD value with respect to KRAS) [3]: AA (a compound having 20 or more is denoted as AA)
CCC[C@H]1C(=O)N[C@@H]([C@@H](C)CC)C(=O)N(C)CC(=O)N(C)[C@H]2C/C=C\CCN(C2=O)[C@@H](Cc2ccc(C)cc2)C(=O)N(C)CC(=O)N[C@@H](CCc2cc(F)c(C(F)(F)F)c(F)c2)C(=O)N2CC3(CC3)C[C@H]2C(=O)NC2(CC(C)(C)C2)C(=O)N(C)[C@@H](CC(F)(F)F)C(=O)N(C)[C@H](C(=O)N(C)C)CC(=O)N1C [PP3003] | A (a compound having 10 or more and less than 20 is denoted as A) | 9.14 | AA (a compound having 20 or more is denoted as AA) | – | –
